Key:
Format in all cases: in vivo
Settings in all cases: 200 L/ha water, isoxaben 40, flufenacet 200, diflufenican 100 g ai/ha, observed mean
[1] = tested on: STEME (Stellaria media (L.) Vill., common chickweed); assay: Trial 1: small plot field experiment in winter wheat, foliar applied, visual % control of STEME
Description: (§1) Results in Tables 1 and 2 are for foliar applied compositions in small plot research experiments to evaluate the efficacy of the compositions in winter wheat. Application water volume was 200 liters per hectare (L/ha). Crop stage at time of application was 12-13. The values reported are means. […] Colby's equation was used to determine the herbicidal effects expected from the mixtures (Colby, S. R. Calculation of the synergistic and antagonistic response of herbicide combinations. Weeds 1967, 15, 20-22.). More specifically, the following equation was used to calculate the expected activity of mixtures containing two active ingredients, A and B:
(§2) A=observed efficacy of active ingredient A at the same concentration as used in the mixture;
(§3) B=observed efficacy of active ingredient B (or combination B) at the same concentration as used in the mixture.

[2] = tested on: BRSNW (Brassica napus, winter oilseed rape); assay: Trial 1: small plot field experiment in winter wheat, foliar applied, visual % control of BRSNW
Description: as §1, §2, §3

[3] = tested on: GERDI (Geranium dissectum, cutleaf geranium); assay: Trial 1: small plot field experiment in winter wheat, foliar applied, visual % control of GERDI
Description: as §1, §2, §3

[4] = tested on: BRSNW (Brassica napus, winter oilseed rape); assay: Trial 2: small plot field experiment in winter wheat, foliar applied, visual % control of BRSNW
Description: as §1, §2, §3

Row | Compound | VISUAL % CONTROL OF STEME 28 DAT, Ob [1] | VISUAL % CONTROL OF BRSNW 28 DAT, Ob [2] | VISUAL % CONTROL OF GERDI 28 DAT, Ob [3] | VISUAL % CONTROL OF BRSNW 13 DAT, Ob [4] | VISUAL % CONTROL OF BRSNW 25 DAT, Ob [4]
1 | CC(C)N(C(=O)COc1nnc(C(F)(F)F)s1)c1ccc(F)cc1 [flufenacet, N-(4-fluorophenyl)-N-(1-methylethyl)-2-[[5-(trifluoromethyl)-1,3,4-thiadiazol-2-yl]oxy]acetamide] | 0 e % | 0 d % | 0 d % | 43 cd % | 55 b %
2 | CCC(C)(CC)c1cc(NC(=O)c2c(OC)cccc2OC)on1 [isoxaben, N-[3-(1-ethyl-1-methylpropyl)isoxazol-5-yl]-2,6-dimethoxybenzamide] | 0 e % | 0 d % | 0 d % | 22 de % | 23 cd %

From patent US20140256551A1, “HERBICIDAL COMPOSITIONS COMPRISING ISOXABEN AND FLUFENACET” (Dow AgroSciences LLC, priority 2013, published 2014)
